Laboratory results from patent US20240174622A1, “COMPOUND AND RADIOACTIVE LABELING COMPOUND” (NIHON MEDI-PHYSICS CO., LTD., priority 2021, published 2024).
One block for each molecule: values may come before it.

Key:
[1] = biological target: human serum albumin (HSA) (Homo sapiens, UniProt P02768); assay: Evaluation of binding to albumin (HSA solution, PBS control); details: left to stand in HSA solution (45 mg/mL)
Experimental: Thereafter, the reaction liquids were added to a spin column (Sephadex G-100; manufactured by Cytiva), and centrifuged at 1500×g at 4° C. for 2 minutes. After separation, the radioactivity for each of the column and the eluate was measured with a gamma counter.
When a compound to be evaluated binds to albumin to form a composite, the compound passes through the column because of the increased molecular size.
As in Examples described above, PBS and human albumin were used to evaluate binding to albumin.
Thereafter, the reaction liquid was added to a spin column (Sephadex G-50; manufactured by Cytiva), and centrifuged at 1500×g at 4° C. for 2 minutes. After separation, the radioactivity of the column and the eluate was measured with a gamma counter.

[2] = test system: LNCaP tumor-transplanted mouse; assay: Internal radioactivity distribution using LNCaP tumor-transplanted mouse; assay type: in vivo
Experimental: (§1) The animal test was performed in compliance with the guidelines of Kyoto University Animal Experiment Committee. Male CB17/IcrJcl-Prkdc^scid mice were purchased from CLEA Japan, Inc. The animals were kept under 12 h/12 h, day/night cycle conditions and fed ad libitum with food and water. LNCaP cells (1.0×10^7 cells/mouse) or PC-3 cells (1.0×10^7 cells/mouse) were suspended in a mixture of PBS and Matrigel manufactured by Corning Life Sciences (1:1, 150 μL) and the suspension was subcutaneously transplanted to the right shoulder of mice under isoflurane anesthesia. Thereafter, the mice were kept for 40 to 60 days.
LNCaP or PC-3 tumor-implanted mice were administered saline solutions (185 kBq, 100 μL) of [^111In]In-PSMA-DA1 or [^111In]In-PSMA-DB from the tail vein (n=3 each). Mice were euthanized 1, 4, 24, 48, 96, and 192 hours after administration. Thereafter, blood and each organ were recovered, and the mass and radioactivity of the organs were measured.
The percentage (% ID) of the radioactivity amount to the administered radioactivity amount (injected dose) is shown as the value (% ID/g) divided by the blood mass or the organ mass (g).
LNCaP tumor-implanted mice prepared by the same method as in Example 1-1 were administered a saline solution (241 kBq/100 μL) of [^111In]In-PtDA from the tail vein (n=3). Mice were euthanized 1, 24, and 48 hours after administration. Thereafter, blood and each organ were recovered, and the mass and radioactivity of the organs were measured.
LNCaP tumor-implanted mice prepared by the same method as in Example 1-1 were administered a saline solution (259 kBq/100 μL each) of each of the radiolabeled compounds in Examples 3-1 to 3-3 or Comparative Examples 2-1 to 2-2 from the tail vein (n=2 to 3). Mice were euthanized 1, 4, 24, 48, 96, and 192 hours after administration. Thereafter, blood and each organ were recovered, and the mass and radioactivity of the organs were measured.
as §1, with “LNCaP cells (4.3×10^6 cells/mouse) or” for “LNCaP cells (1.0×10^7 cells/mouse) or”, “PC-3 cells (3.3×10^6 cells/mouse) were” for “PC-3 cells (1.0×10^7 cells/mouse) were”, “shoulder of CB17/IcrJcl-Prkdc^scid mice under” for “shoulder of mice under”
Mice were euthanized 1, 4, 24, 48, 96, and 192 hours after administration. Thereafter, blood and each organ were recovered, and the mass and radioactivity of the organs were measured.
The results are shown in Table 12 (Mean value±standard deviation, n=3).

LNCaP tumor = assay: Evaluation of suppressing tumor growth by 225Ac-labeling compound; assay type: in vivo, mouse; details: 20 kBq, tail vein
Experimental: [^225Ac]Ac-PSMA-DA1 (20 kBq) or [^225Ac]Ac-PSMA-DB (20 kBq) obtained by the above method was dissolved in 5% ethanol-containing acetate buffer (158 mM, pH 6.5, 100 μL), and the solution was administered to LNCaP tumor-transplanted mice from the tail vein (n=6 or 5). As the control group, 100 μL of 5% ethanol-containing acetate buffer (158 mM, pH 6.5) was administered to LNCaP tumor-transplanted mice from the tail vein (n=4).
After administration of the ^225Ac-labeling compound, the tumor volume and body weight were measured 2 times per week. The tumor volumes on the day when administration of ^225Ac-labeling compound was started were 75.3±26.0, 80.6±20.8, and 91.1±15.9 mm^3 for the groups administered [^225Ac]Ac-PSMA-DA1, [^225Ac]Ac-PSMA-DB, and 5% ethanol-containing acetate buffer, respectively.

Chain of human serum albumin (HSA) (P02768 25-609): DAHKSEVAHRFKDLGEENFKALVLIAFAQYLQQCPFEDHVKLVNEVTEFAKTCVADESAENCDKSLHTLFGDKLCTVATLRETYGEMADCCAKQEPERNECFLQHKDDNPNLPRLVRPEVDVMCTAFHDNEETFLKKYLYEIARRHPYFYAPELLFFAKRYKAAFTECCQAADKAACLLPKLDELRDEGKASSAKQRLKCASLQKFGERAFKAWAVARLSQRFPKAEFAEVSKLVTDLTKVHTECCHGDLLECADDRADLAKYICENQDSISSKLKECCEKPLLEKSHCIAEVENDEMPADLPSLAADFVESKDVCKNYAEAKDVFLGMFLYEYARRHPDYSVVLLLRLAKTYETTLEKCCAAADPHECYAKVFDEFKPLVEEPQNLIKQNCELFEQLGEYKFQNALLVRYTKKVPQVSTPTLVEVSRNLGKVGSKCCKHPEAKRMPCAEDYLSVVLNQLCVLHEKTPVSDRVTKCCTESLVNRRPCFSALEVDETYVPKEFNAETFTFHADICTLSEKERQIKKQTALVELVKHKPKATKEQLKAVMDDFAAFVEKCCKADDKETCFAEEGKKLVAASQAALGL

radioactivity in the eluate (in words) [1]: significantly higher | Blood ([2]; 1 h after administration): 27.2 ± 2.92 % ID/g | Brain ([2]; 1 h after administration): 0.40 ± 0.05 % ID/g | Heart ([2]; 1 h after administration): 6.53 ± 0.66 % ID/g | Intestine ([2]; 1 h after administration): 2.60 ± 0.48 % ID/g | Kidney ([2]; 1 h after administration): 57.1 ± 17.4 % ID/g | LNCaP Tumor ([2]; 1 h after administration): 7.79 ± 1.11 % ID/g | Liver ([2]; 1 h after administration): 4.32 ± 0.40 % ID/g | Lung ([2]; 1 h after administration): 16.7 ± 1.41 % ID/g | Muscle ([2]; 1 h after administration): 1.51 ± 0.23 % ID/g | Pancreas ([2]; 1 h after administration): 2.59 ± 0.26 % ID/g | Spleen ([2]; 1 h after administration): 8.56 ± 0.95 % ID/g | Stomach (% ID) ([2]; 1 h after administration): 0.49 ± 0.04 % ID | Blood ([2]; 4 h after administration): 19.3 ± 3.84 % ID/g | Brain ([2]; 4 h after administration): 0.31 ± 0.07 % ID/g | Heart ([2]; 4 h after administration): 5.98 ± 0.93 % ID/g | Intestine ([2]; 4 h after administration): 3.23 ± 0.18 % ID/g | Kidney ([2]; 4 h after administration): 100 ± 6.33 % ID/g | LNCaP Tumor ([2]; 4 h after administration): 11.3 ± 2.39 % ID/g | Liver ([2]; 4 h after administration): 3.36 ± 0.39 % ID/g | Lung ([2]; 4 h after administration): 14.1 ± 2.06 % ID/g | Muscle ([2]; 4 h after administration): 1.26 ± 0.18 % ID/g | Pancreas ([2]; 4 h after administration): 2.17 ± 0.15 % ID/g | Spleen ([2]; 4 h after administration): 7.42 ± 0.88 % ID/g | Stomach (% ID) ([2]; 4 h after administration): 0.78 ± 0.28 % ID | Blood ([2]; 24 h after administration): 7.20 ± 0.50 % ID/g | Brain ([2]; 24 h after administration): 0.16 ± 0.01 % ID/g | Heart ([2]; 24 h after administration): 2.50 ± 0.17 % ID/g | Intestine ([2]; 24 h after administration): 1.23 ± 0.28 % ID/g | Kidney ([2]; 24 h after administration): 26.4 ± 2.50 % ID/g | LNCaP Tumor ([2]; 24 h after administration): 8.04 ± 0.38 % ID/g | Liver ([2]; 24 h after administration): 1.73 ± 0.09 % ID/g | Lung ([2]; 24 h after administration): 5.85 ± 0.39 % ID/g | Muscle ([2]; 24 h after administration): 0.61 ± 0.04 % ID/g | Pancreas ([2]; 24 h after administration): 1.24 ± 0.16 % ID/g | Spleen ([2]; 24 h after administration): 2.87 ± 0.40 % ID/g | Stomach (% ID) ([2]; 24 h after administration): 0.25 ± 0.08 % ID | Blood ([2]; 48 h after administration): 3.88 ± 1.13 % ID/g | Brain ([2]; 48 h after administration): 0.12 ± 0.02 % ID/g | Heart ([2]; 48 h after administration): 1.37 ± 0.18 % ID/g | Intestine ([2]; 48 h after administration): 0.62 ± 0.14 % ID/g | Kidney ([2]; 48 h after administration): 17.3 ± 5.57 % ID/g | LNCaP Tumor ([2]; 48 h after administration): 7.79 ± 2.72 % ID/g | Liver ([2]; 48 h after administration): 1.42 ± 0.08 % ID/g | Lung ([2]; 48 h after administration): 3.18 ± 0.68 % ID/g | Muscle ([2]; 48 h after administration): 0.26 ± 0.05 % ID/g | Pancreas ([2]; 48 h after administration): 0.60 ± 0.13 % ID/g | Spleen ([2]; 48 h after administration): 1.76 ± 0.39 % ID/g | Stomach (% ID) ([2]; 48 h after administration): 0.13 ± 0.04 % ID | Blood ([2]; 96 h after administration): 0.63 ± 0.32 % ID/g | Brain ([2]; 96 h after administration): 0.07 ± 0.02 % ID/g | Heart ([2]; 96 h after administration): 0.43 ± 0.17 % ID/g | Intestine ([2]; 96 h after administration): 0.29 ± 0.09 % ID/g | Kidney ([2]; 96 h after administration): 4.33 ± 2.06 % ID/g | LNCaP Tumor ([2]; 96 h after administration): 4.17 ± 0.80 % ID/g | Liver ([2]; 96 h after administration): 0.70 ± 0.25 % ID/g | Lung ([2]; 96 h after administration): 0.78 ± 0.29 % ID/g | Muscle ([2]; 96 h after administration): 0.08 ± 0.03 % ID/g | Pancreas ([2]; 96 h after administration): 0.22 ± 0.06 % ID/g | Spleen ([2]; 96 h after administration): 0.88 ± 0.32 % ID/g | Stomach (% ID) ([2]; 96 h after administration): 0.06 ± 0.03 % ID | Blood ([2]; 192 h after administration): 0.03 ± 0.00 % ID/g | Brain ([2]; 192 h after administration): 0.02 ± 0.01 % ID/g | Heart ([2]; 192 h after administration): 0.12 ± 0.02 % ID/g | Intestine ([2]; 192 h after administration): 0.05 ± 0.01 % ID/g | Kidney ([2]; 192 h after administration): 0.27 ± 0.02 % ID/g | LNCaP Tumor ([2]; 192 h after administration): 1.31 ± 0.49 % ID/g | Liver ([2]; 192 h after administration): 0.35 ± 0.04 % ID/g | Lung ([2]; 192 h after administration): 0.12 ± 0.04 % ID/g | Muscle ([2]; 192 h after administration): 0.01 ± 0.02 % ID/g | Pancreas ([2]; 192 h after administration): 0.07 ± 0.01 % ID/g | Spleen ([2]; 192 h after administration): 0.31 ± 0.11 % ID/g | Stomach (% ID) ([2]; 192 h after administration): 0.01 ± 0.00 % ID
SMILES: O=C([O-])CN(Cc1cccc(C(=O)[O-])n1)C[C@H](Cc1ccc(NC(=O)[C@H](CCCCNC(=O)CCC(=O)NCCCC[C@H](NC(=O)N[C@@H](CCC(=O)O)C(=O)O)C(=O)O)NC(=O)COCCOCCOCC(=O)N[C@@H](CCCCNC(=O)CCCc2ccc(I)cc2)C(=O)O)cc1)N(CC(=O)[O-])Cc1cccc(C(=O)[O-])n1.[111In+3] [[^111In]In-Octapa-3]

SMILES: O=C([O-])CN1CCN(C(CCC(=O)NCCCC[C@H](NC(=O)N[C@@H](CCC(=O)O)C(=O)O)C(=O)O)C(=O)[O-])CCN(CC(=O)[O-])CCN(C(CCC(=O)N[C@@H](CCCCNC(=O)CCCc2ccc(I)cc2)C(=O)O)C(=O)[O-])CC1.[225Ac+3] (stereo partly shown) [[^225Ac]Ac-PSMA-DA1]
body weight reduction (LNCaP tumor): transient | growth suppression continuously observed until (LNCaP tumor): 6 weeks | tumor growth compared with the control group (LNCaP tumor): significantly suppressed
